Earlier results in patent US20240350385A1 (priority 2023, published 2024).

Tested on: patients
Conditions: in vivo

Row | Compound | incidence of allergic contact dermatitis [%]
1 | 2-Octyl cyanoacrylate | 2.7
2 | C=C(C#N)C(=O)OCCCC [n-Butyl cyanoacrylate] | 2.2
